How the values were obtained:
Type in all cases: in vivo
Conditions in all cases: 250 g/ha, evaluated visually after 13 days, scale 0-5
[1] = system: Amaranthus retroflexus (AMARE); assay: Herbicidal efficacy, application post-emergence
Method: (§1) Seeds of a variety of test species [Ipomoea hederacea (IPOHE); Zea mays (ZEAMX); Echinochloa crus-galli (ECHCG); Setaria faberi (SETFA); Abutilon theophrasti (ABUTH); Amaranthus retroflexus (AMARE)] were sown in standard sterilised soil in pots. After cultivation for one day (pre-emergence) or after 8 days cultivation (post-emergence) under controlled conditions in a glasshouse (at 24/16° C., day/night; 14 hours light; 65 % humidity), the plants were sprayed with an aqueous spray solution derived from the formulation of the technical active ingredient in acetone / water (50:50) solution containing 0.5% Tween 20 (polyoxyethelyene sorbitan monolaurate, CAS RN 9005-64-5), subsequently diluted in water, and sprayed to give the stated application rate.
(§2) The test plants were then grown under controlled conditions in a glasshouse (at 24/16° C., day/night; 14 hours light; 65 % humidity) and watered twice daily.
(§3) After 13 days for pre- and post-emergence, the test was evaluated visually for percentage phytotoxicity to the plant (where 5 = total damage to plant; 0 = no damage to plant).

[2] = system: Ipomoea hederacea (IPOHE); assay: Herbicidal efficacy, application post-emergence
Method: as §1, §2, §3

[3] = system: Echinochloa crus-galli (ECHCG); assay: Herbicidal efficacy, application post-emergence
Method: as §1, §2, §3

Setaria faberi (SETFA) [4] = assay: Herbicidal efficacy, application post-emergence
Method: as §1, §2, §3

Zea mays (ZEAMX) [5] = assay: Herbicidal efficacy, application post-emergence
Method: as §1, §2, §3

[6] = system: Abutilon theophrasti (ABUTH); assay: Herbicidal efficacy, application pre-emergence; set-up: key: 5 = total damage to plant; 0 = no damage to plant
Method: as §1, §2, §3

[7] = system: Amaranthus retroflexus (AMARE); assay: Herbicidal efficacy, application pre-emergence; set-up: key: 5 = total damage to plant; 0 = no damage to plant
Method: as §1, §2, §3

[8] = system: Ipomoea hederacea (IPOHE); assay: Herbicidal efficacy, application pre-emergence; set-up: key: 5 = total damage to plant; 0 = no damage to plant
Method: as §1, §2, §3

[9] = system: Echinochloa crus-galli (ECHCG); assay: Herbicidal efficacy, application pre-emergence; set-up: key: 5 = total damage to plant; 0 = no damage to plant
Method: as §1, §2, §3

Setaria faberi (SETFA) [10] = assay: Herbicidal efficacy, application pre-emergence; set-up: key: 5 = total damage to plant; 0 = no damage to plant
Method: as §1, §2, §3

[11] = system: Abutilon theophrasti (ABUTH); assay: Herbicidal efficacy, application post-emergence; set-up: key: 5 = total damage to plant; 0 = no damage to plant
Method: as §1, §2, §3

Zea mays (ZEAMX) [12] = assay: Herbicidal efficacy, application pre-emergence
Method: as §1, §2, §3

SMILES	phytotoxicity to the plant, AMARE [1]	phytotoxicity to the plant, IPOHE [2]	phytotoxicity to the plant, ECHCG [3]	phytotoxicity to the plant, SETFA (Setaria faberi (SETFA) [4])	phytotoxicity to the plant, ZEAMX (Zea mays (ZEAMX) [5])	phytotoxicity to the plant, ABUTH [6]	phytotoxicity to the plant, AMARE [7]	phytotoxicity to the plant, IPOHE [8]	phytotoxicity to the plant, ECHCG [9]	phytotoxicity to the plant, SETFA (Setaria faberi (SETFA) [10])	phytotoxicity to the plant, ABUTH [11]	phytotoxicity to the plant, ZEAMX (Zea mays (ZEAMX) [12])
CCc1cc(C2CN(C)C(=O)C2C(=O)Nc2cccc(F)c2C)nn1C(F)F (stereo not drawn) [Compound 10, 4-[1-(difluoromethyl)-5-ethyl-pyrazol-3-yl]-N-(3-fluoro-2-methylphenyl)-1-methyl-2-oxo-pyrrolidine-3-carboxamide]	1	4	4	4	4	2	1	2	5	5	0	4
Cc1c(F)cccc1NC(=O)C1C(=O)N(C)CC1c1cc(C)n(C(F)F)n1 (stereo not drawn) [Compound 9, 4-[1-(difluoromethyl)-5-methyl-pyrazol-3-yl]-N-(3-fluoro-2-methyl-phenyl)-1-methyl-2-oxo-pyrrolidine-3-carboxamide]	3	3	4	4	3	1	1	1	5	5	0	3
CCc1cc(C2CN(C)C(=S)C2C(=O)Nc2cccc(F)c2F)nn1C(F)F (stereo not drawn) [Compound 38, 4-[1-(difluoromethyl)-5-ethyl-pyrazol-3-yl]-N-(2,3-difluorophenyl)-1-methyl-2-thioxo-pyrrolidine-3-carboxamide]	1	4	4	4	3	0	0	2	5	5	0	4
Cc1cc(C2CN(C)C(=S)C2C(=O)Nc2ccc(F)cc2F)nn1C(F)F (stereo not drawn) [Compound 61, 4-[1-(difluoromethyl)-5-methyl-pyrazol-3-yl]-N-(2,4-difluorophenyl)-1-methyl-2-thioxo-pyrrolidine-3-carboxamide]	1	1	4	3	2	0	2	0	5	5	0	1
Cc1c(Br)c(C2CN(C)C(=O)C2C(=O)Nc2ccc(F)nc2F)nn1C(F)F (stereo not drawn) [Compound 83, 4-[4-bromo-1-(difluoromethyl)-5-methyl-pyrazol-3-yl]-N-(2,6-difluoro-3-pyridyl)-1-methyl-2-oxo-pyrrolidine-3-carboxamide]	1	1	4	3	4	0	0	0	5	5	1	1
Cc1cc(C2CN(C)C(=S)C2C(=O)Nc2ccc(F)nc2F)nn1C(F)F (stereo not drawn) [Compound 85, 4-[1-(difluoromethyl)-5-methyl-pyrazol-3-yl]-N-(2,6-difluoro-3-pyridyl)-1-methyl-2-thioxo-pyrrolidine-3-carboxamide]	1	1	4	2	1	0	0	0	4	4	0	1
CCc1cc(C2CN(C)C(=S)C2C(=O)Nc2ccc(F)nc2F)nn1C(F)F (stereo not drawn) [Compound 86, 4-[1-(difluoromethyl)-5-ethyl-pyrazol-3-yl]-N-(2,6-difluoro-3-pyridyl)-1-methyl-2-thioxo-pyrrolidine-3-carboxamide]	1	1	4	4	3	1	2	0	5	5	3	1
Cc1cc(C2CN(C)C(=O)C2C(=O)Nc2ccc(F)cc2F)nn1C(F)F (stereo not drawn) [Compound 57, 4-[1-(difluoromethyl)-5-methyl-pyrazol-3-yl]-N-(2,4-difluorophenyl)-1-methyl-2-oxo-pyrrolidine-3-carboxamide]	1	3	4	4	2	1	1	1	5	5	1	2
Cc1c(Br)c(C2CN(C)C(=O)C2C(=O)Nc2ccc(F)cc2F)nn1C(F)F (stereo not drawn) [Compound 59, 4-[4-bromo-1-(difluoromethyl)-5-methyl-pyrazol-3-yl]-N-(2,4-difluorophenyl)-1-methyl-2-oxo-pyrrolidine-3-carboxamide]	1	1	4	4	3	1	0	0	5	5	0	1
Cc1cc(C2CN(C)C(=O)C2C(=O)Nc2ccc(F)nc2F)nn1C(F)F (stereo not drawn) [Compound 81, 4-[1-(difluoromethyl)-5-methyl-pyrazol-3-yl]-N-(2,6-difluoro-3-pyridyl)-1-methyl-2-oxo-pyrrolidine-3-carboxamide]	2	1	4	4	4	0	0	2	5	5	0	2
